According to ChEMBL document CHEMBL4725244, “Immunomodulation-mediated anticancer activity of a novel compound from Brugmansia suaveolens leaves” (Bioorg Med Chem, 2020):
Activity calls are given as the source filed them. No cut-off for these calls is given here.

Legend:
[1] = (§1) Immunomodulation-mediated anticancer activity against human MCF7 cells assessed as human PBMC-mediated inhibition of cancer cell viability at 10 uM pretreated with effector PBMC cells for 48 hrs followed by co-culturing of target cancer cells with PBMC at ratio of 1:2.5 to 1:20 and measured after 24 hrs by MTT assay; format: functional
[2] = test system: PBMC; assay: Immuno-modulation activity in human PBMC assessed as increase in cell proliferation at 20 uM after 48 hrs by MTT assay; format: functional, tissue-based
[3] = (§2) Immunomodulation-mediated anticancer activity against human MCF7 cells assessed as human PBMC-mediated decrease in mitochondrial membrane potential at 10 uM pretreated with effector PBMC cells for 6 hrs followed by co-culturing of target cancer cells with PBMC at ratio of 1:10 for 24 hrs by rhodamine 123 staining based fluorometric analysis (reference value: 5%); format: functional
[4] = (§3) Immunomodulation-mediated anticancer activity against human MCF7 cells assessed as human PBMC-mediated cell cycle arrest by measuring proportion of cells at G2M phase at 10 uM pretreated with effector PBMC cells for 48 hrs followed by co-culturing of target cancer cells with PBMC at ratio of 1:10 for 24 hrs by propidium iodide staining based flow cytometry (reference value: 10.5%); format: functional
[5] = as §2, with “increase” for “decrease”, “ROS generation” for “mitochondrial membrane potential”, “48” for “6”, “6” for “24”, “DCFH-DA” for “rhodamine 123”, “7%)” for “5%)”; format: functional
[6] = test system: A549; assay: as §1, with “A549” for “MCF7”, “1:10” for “1:2.5 to 1:20”, “[…] (reference value: 5%)” for “MTT assay”; format: functional
[7] = Cytotoxicity against human MCF7 cells assessed as reduction in cell viability at 5 to 20 uM measured after 24 hrs by MTT assay relative to control; format: cell-based; details: dose 5-20 µM, read-out: INH
[8] = as §3, with “measuring increase in” for “measuring”, “subG1” for “G2M”, “relative to control” for “(reference value: 10.5%)”; format: functional
[9] = Immuno-modulation activity in human PBMC assessed as increase in IFNgamma secretion at 10 uM after 48 hrs by ELISA relative to control; format: functional
[10] = Immuno-modulation activity in human PBMC assessed as increase in cell proliferation at 10 uM after 48 hrs by MTT assay relative to control; format: functional
[11] = as §3, with “S” for “G2M”, “19.6%)” for “10.5%)”; format: functional
[12] = as §3, with “G0G1” for “G2M”, “64.6%)” for “10.5%)”; format: functional
[13] = as §3, with “subbG1” for “G2M”, “4.8%)” for “10.5%)”; format: functional
[14] = as §1, with “1:10” for “1:2.5 to 1:20”, “assay (reference value: 5%)” for “assay”; format: functional
[15] = Immuno-modulation activity in human PBMC assessed as increase in IL-2 secretion at 10 uM after 48 hrs by ELISA relative to control; format: functional

Compound: COc1ccc(OC)c2c1OC(=O)CC[C@H](O)C2=O
- Activity [1]: <=70%
- Activity [2]: Active
- inhibition at 10 µM [3]: 66%
- Activity [4]: 59%
- Activity [5]: 79%
- inhibition at 10 µM [6]: 32%
- cytotoxicity at 24 h, up to 20 µM [7]: < 30%
- fold change (FC) [8]: 5
- fold change (FC) [9]: 3
- Activity [10]: 92%
- Activity [11]: 13.2%
- Activity [12]: 51.8%
- Activity [13]: 28.4%
- inhibition at 10 µM [14]: 67%
- fold change (FC) [15]: 3
